Results on 22 compounds are retold here after ChEMBL document CHEMBL1138337, “Bis-azaaromatic quaternary ammonium salts as antagonists at nicotinic receptors mediating nicotine-evoked dopamine release: An investigation of binding conformation” (2007).

Chain of Neuronal acetylcholine receptor subunit alpha-7 (Rattus norvegicus) (Q05941 whole entry): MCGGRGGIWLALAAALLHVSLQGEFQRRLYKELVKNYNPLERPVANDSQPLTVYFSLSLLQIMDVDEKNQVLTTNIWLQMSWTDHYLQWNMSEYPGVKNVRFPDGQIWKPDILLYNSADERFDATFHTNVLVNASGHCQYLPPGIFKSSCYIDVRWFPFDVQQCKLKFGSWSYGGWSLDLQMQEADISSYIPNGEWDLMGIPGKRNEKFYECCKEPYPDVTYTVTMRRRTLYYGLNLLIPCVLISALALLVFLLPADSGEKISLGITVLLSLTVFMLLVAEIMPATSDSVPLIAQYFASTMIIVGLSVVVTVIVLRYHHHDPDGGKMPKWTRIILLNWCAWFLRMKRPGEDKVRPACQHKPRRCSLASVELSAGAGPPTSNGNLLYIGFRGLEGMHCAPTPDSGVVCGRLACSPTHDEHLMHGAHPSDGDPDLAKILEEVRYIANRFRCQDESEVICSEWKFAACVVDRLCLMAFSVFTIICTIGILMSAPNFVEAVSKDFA

One experiment addresses Neuronal acetylcholine receptor subunit alpha-7 (Rattus norvegicus) (UniProt Q05941). The experiment in a line: Displacement of [3H]MLA from alpha-7 nAChR expressed in rat brain membrane at 100 nM. On the technique in general: Displacement assays read how much labelled ligand stays bound in the presence of the test substance.
As for `CN1CCC[C@H]1c1ccc[n+](CCCCc2ccc(CCCC[n+]3cccc([C@@H]4CCCN4C)c3)cc2)c1`, the inhibition (in general, how much of the control response was suppressed) was 5.3%.
Same read-out and setting: the figure for `CN1CCC[C@H]1c1ccc[n+](CCCCCc2ccccc2CCCCC[n+]2cccc([C@@H]3CCCN3C)c2)c1` is 11%; for `Cc1ccc[n+](CCCC#Cc2ccccc2C#CCCC[n+]2cccc(C)c2)c1` it is 0%.
`Cc1ccc[n+](CCCCCCCCCCCC[n+]2cccc(C)c2)c1` displayed an inhibition of 0%.
In turn, `Cc1cc[n+](CCCCc2ccc(CCCC[n+]3ccc(C)cc3)cc2)cc1` yielded an inhibition of 7.73%.
`CN1CCC[C@H]1c1ccc[n+](CCCC#Cc2ccccc2C#CCCC[n+]2cccc([C@@H]3CCCN3C)c2)c1` came in with an inhibition of 9.2%.
Take `Cc1cccc[n+]1CCCC#Cc1ccccc1C#CCCC[n+]1ccccc1C`: the inhibition came to 1.2%.
Compound `Cc1cccc[n+]1CCCCc1ccc(CCCC[n+]2ccccc2C)cc1` displayed an inhibition of 0.16%.
As for `Cc1ccc[n+](CCCCCc2ccccc2CCCCC[n+]2cccc(C)c2)c1`, the inhibition is 5.4%.
Still for that read-out and setting: the figure for `Cc1ccc[n+](CCC#Cc2ccc(C#CCC[n+]3cccc(C)c3)cc2)c1` is 3.1%; for `Cc1ccc[n+](CCCCCc2cccc(CCCCC[n+]3cccc(C)c3)c2)c1` it is 6.24%.
On the same count and under the same terms, the figure for `Cc1cccc[n+]1CCCCCc1cccc(CCCCC[n+]2ccccc2C)c1` is 0%.
Turning to `Cc1cc[n+](CCCCCc2ccccc2CCCCC[n+]2ccc(C)cc2)cc1`, the inhibition is 3.1%.
For the compound `Cc1cc[n+](CCCC#Cc2ccccc2C#CCCC[n+]2ccc(C)cc2)cc1`, the inhibition was 5.4%.
The same measure, in the same setting: the figure for `Cc1cccc[n+]1CCCC#Cc1cccc(C#CCCC[n+]2ccccc2C)c1` is 0%; for `Cc1ccc[n+](CCCCc2ccc(CCCC[n+]3cccc(C)c3)cc2)c1` it is 7.41%; for `Cc1cccc[n+]1CCCCCc1ccccc1CCCCC[n+]1ccccc1C` it is 7.6%.
For `Cc1ccc[n+](CCCC#Cc2cccc(C#CCCC[n+]3cccc(C)c3)c2)c1`, the inhibition was 8%.
Same read-out and setting: the figure for `Cc1cc[n+](CCC#Cc2ccc(C#CCC[n+]3ccc(C)cc3)cc2)cc1` is 2.7%; for `Cc1cc[n+](CCCC#Cc2cccc(C#CCCC[n+]3ccc(C)cc3)c2)cc1` it is 6.4%.
For `CN1CCC[C@H]1c1ccc[n+](CCCC#Cc2cccc(C#CCCC[n+]3cccc([C@@H]4CCCN4C)c3)c2)c1`, the inhibition stood at 2.6%.
In turn, `Cc1cc[n+](CCCCCc2cccc(CCCCC[n+]3ccc(C)cc3)c2)cc1` came in with an inhibition of 3.5%.

Another experiment has as its target Neuronal acetylcholine receptor; alpha4/beta2 (Rattus norvegicus) (UniProt P09483+P12390). Put plainly: Displacement of [3H]NIC from alpha-4-beta-2 nAChR expressed in rat brain membrane at 100 nM.
For the compound `CN1CCC[C@H]1c1ccc[n+](CCCCc2ccc(CCCC[n+]3cccc([C@@H]4CCCN4C)c3)cc2)c1`, the inhibition amounted to 3.66%.
On the same count and under the same terms, the figure for `CN1CCC[C@H]1c1ccc[n+](CCCCCc2ccccc2CCCCC[n+]2cccc([C@@H]3CCCN3C)c2)c1` is 71%; for `Cc1ccc[n+](CCCC#Cc2ccccc2C#CCCC[n+]2cccc(C)c2)c1` it is 3.9%.
`Cc1ccc[n+](CCCCCCCCCCCC[n+]2cccc(C)c2)c1`: the inhibition was 0%.
Consider `Cc1cc[n+](CCCCc2ccc(CCCC[n+]3ccc(C)cc3)cc2)cc1`, for which the inhibition was found to be 1.1%.
Same read-out and setting: the figure for `CN1CCC[C@H]1c1ccc[n+](CCCC#Cc2ccccc2C#CCCC[n+]2cccc([C@@H]3CCCN3C)c2)c1` is 72%; for `Cc1cccc[n+]1CCCC#Cc1ccccc1C#CCCC[n+]1ccccc1C` it is 2.1%.
`Cc1cccc[n+]1CCCCc1ccc(CCCC[n+]2ccccc2C)cc1` gave an inhibition of 6.3%.
`Cc1ccc[n+](CCCCCc2ccccc2CCCCC[n+]2cccc(C)c2)c1`: the inhibition was determined as 0%.
`Cc1ccc[n+](CCC#Cc2ccc(C#CCC[n+]3cccc(C)c3)cc2)c1` had an inhibition of 13%.
Regarding `Cc1ccc[n+](CCCCCc2cccc(CCCCC[n+]3cccc(C)c3)c2)c1`, the inhibition was 3.5%.
Compound `Cc1cccc[n+]1CCCCCc1cccc(CCCCC[n+]2ccccc2C)c1` yielded an inhibition of 7.2%.
Turning to `Cc1cc[n+](CCCCCc2ccccc2CCCCC[n+]2ccc(C)cc2)cc1`, the inhibition came to 0%.
The compound `Cc1cc[n+](CCCC#Cc2ccccc2C#CCCC[n+]2ccc(C)cc2)cc1` displayed an inhibition of 2.5%.
Compound `Cc1cccc[n+]1CCCC#Cc1cccc(C#CCCC[n+]2ccccc2C)c1` yielded an inhibition of 1.9%.
`Cc1ccc[n+](CCCCc2ccc(CCCC[n+]3cccc(C)c3)cc2)c1` showed an inhibition of 4.33%.
Turning to `Cc1cccc[n+]1CCCCCc1ccccc1CCCCC[n+]1ccccc1C`, the inhibition stood at 0%.
With `Cc1ccc[n+](CCCC#Cc2cccc(C#CCCC[n+]3cccc(C)c3)c2)c1`, the inhibition was found to be 0.5%.
Compound `Cc1cc[n+](CCC#Cc2ccc(C#CCC[n+]3ccc(C)cc3)cc2)cc1` yielded an inhibition of 8.9%.
With `Cc1cc[n+](CCCC#Cc2cccc(C#CCCC[n+]3ccc(C)cc3)c2)cc1`, the inhibition was found to be 10%.
In turn, `CN1CCC[C@H]1c1ccc[n+](CCCC#Cc2cccc(C#CCCC[n+]3cccc([C@@H]4CCCN4C)c3)c2)c1` displayed an inhibition of 3.1%.
Still for that read-out and setting: the figure for `Cc1cc[n+](CCCCCc2cccc(CCCCC[n+]3ccc(C)cc3)c2)cc1` is 4.6%.
